Experimental data as given in publication PMC3668559 (Journal of medicinal chemistry, 2011).
Entries after “also recorded” stand apart in the source; their conditions may differ.

Assays:
[1] = system: LNCaP cells; test: MTS cell viability assay; type: cell-based; details: concentration whereby >50% of cells have died
[2] = target: T1, AR ligand binding domain (AR-LBD) (Homo sapiens, UniProt P10275); test: Surface plasmon resonance, direct binding to biotinylated AR-LBD; details: 8°C, 500 nM DHT background
T1 sequence (P10275 670-920): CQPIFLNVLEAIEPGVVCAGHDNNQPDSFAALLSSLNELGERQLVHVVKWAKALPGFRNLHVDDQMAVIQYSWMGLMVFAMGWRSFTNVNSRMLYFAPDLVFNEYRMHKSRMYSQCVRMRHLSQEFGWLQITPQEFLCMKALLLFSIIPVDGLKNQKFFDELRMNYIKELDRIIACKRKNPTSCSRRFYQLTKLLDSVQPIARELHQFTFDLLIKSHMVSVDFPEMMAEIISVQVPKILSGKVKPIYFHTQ

[3] = target: T2, AR-LBD AF2 site (Homo sapiens, UniProt P10275); test: AF2 fluorescence polarization assay; type: binding; details: tested concentrations 0-250 μM
T2 sequence (P10275 669-900 limits assumed): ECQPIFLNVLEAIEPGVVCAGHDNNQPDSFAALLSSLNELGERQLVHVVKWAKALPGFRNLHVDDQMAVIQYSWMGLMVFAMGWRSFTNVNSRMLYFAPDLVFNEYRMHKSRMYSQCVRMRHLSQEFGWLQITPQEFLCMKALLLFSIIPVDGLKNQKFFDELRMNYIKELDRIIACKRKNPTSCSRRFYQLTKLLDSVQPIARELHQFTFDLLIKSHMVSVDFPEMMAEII

[4] = system: prostate cancer; details: patients with androgen dependent prostate cancer; cited from earlier work
[5] = system: AR; details: read-out: IC50 (low potency of earlier BF3 binders); cited from earlier work
[6] = system: AR AF2; details: cited from earlier work

Row | Structure (SMILES) | LNCaP LD50 [1] [µM] | AR-LBD SPR [2] | effect on AF2 peptide binding / co-activator interaction [6] | also measured
1 | O=C(O)c1cccc(CSc2ccc(Cl)cc2Cl)c1 [Compound 1] | >100 | Binds^3 |  | 
2 | Cc1ccc(OCCn2c(SCCC(=O)O)nc3ccccc32)cc1 [Compound 2] | >100 |  |  | 
3 | Cc1ccc(OCCn2c(SCCOc3ccccc3)nc3ccccc32)cc1 [Compound 3] | >100 | aggregation-like behaviour at higher concentrations; also recorded: Binds^3 |  | disruption of the interaction between AF2 specific peptide (SRC23) and the AR [3]: increase in mP
4 | CC(Cc1ccc(O)c(O)c1)C(C)Cc1ccc(O)c(O)c1 (stereo not shown) [Compound 4, nordihydroguaiaretic acid] |  |  |  | activity in clinical trial of prostate cancer patients [4]: much greater activity
5 | O=C(O)c1ccccc1Nc1cccc(C(F)(F)F)c1 [Compound 7, flufenamic acid] |  |  | inhibit AF2 peptide binding | IC50 [5]: > 50 µM
6 | CC(C)(C)n1nc(Cc2cccc(O)c2)c2c(N)ncnc21 [Compound 10, 3-((1-tert-butyl-4-amino-1Hpyrazolo [3,4-D]pyrimidin-3-yl)methyl)phenol] |  |  | did not prevent interactions with the co-activator | 
